One experiment deals with Bacillus cereus. The experiment in a line: Antimicrobial activity, broth microdilution. In kind it is cell-based. As to conditions: read-out: IC50 B. cereus. The protocol: (§1) The antimicrobial activity assay was performed using the broth microdilution method. Dimethyl sulfoxide (DMSO) was used for the preparation of compound solutions at concentrations of 256 μg/mL, 64 μg/mL, 16 μg/mL, 4 μg/mL, and 1 μg/mL. Three strains of Gram-positive bacteria (Staphylococcus aureus, Bacillus cereus, and Lactobacillus fermentum); three strains of Gram-negative bacteria (Salmonella enterica, Escherichia coli, and Pseudomonas aeruginosa), and fungus Candida albicans (obtained from the American Type Culture Collection (ATCC)) were used for the test. Ampicillin, Cefotaxim, and Nystatin were used as positive controls for the Gram (+) bacterial and Gram (−) bacterial strains and C. albicans, respectively. The activity of the isolated compounds was expressed as an IC50 value (half-maximal inhibitory concentration). The IC50 values were calculated using the program […].
(In general: Broth dilution looks for growth in wells or tubes with falling amounts of substance.)

The next experiment deals with Lactobacillus fermentum. The experiment in a line: Antimicrobial activity, broth microdilution. The class given is cell-based. The conditions noted are these: read-out: IC50 L. fermentum. The protocol:
as §1

Another experiment has as its system Staphylococcus aureus. In words: Antimicrobial activity, broth microdilution. The class given is cell-based. The conditions noted are these: read-out: IC50 S. aureus. As to the method:
as §1

Another experiment deals with Escherichia coli. In words: Antimicrobial activity, broth microdilution. The class given is cell-based. As to conditions: for IC50: Escherichia coli, read-out: IC50 E. coli. As to the method:
as §1

A further experiment concerns Pseudomonas aeruginosa. The experiment in a line: Antimicrobial activity, broth microdilution. The class given is cell-based. As to conditions: for IC50: Pseudomonas aeruginosa, read-out: IC50 P. aeruginosa. As to the method: as §1
For another experiment, the system named is Salmonella enterica. The experiment in a line: Antimicrobial activity, broth microdilution. In kind it is cell-based. The conditions noted are these: Gram (−) strain; for IC50: Salmonella enterica, read-out: IC50 S. enterica. As to the method:
as §1

The test system of a further experiment is Candida albicans. The experiment in a line: Antimicrobial activity, broth microdilution. In kind it is cell-based. As to conditions: for IC50: Candida albicans, read-out: IC50 C. albicans. The protocol:
as §1

In experiment [1] the test system is A-549 (human lung adenocarcinoma). In words: Cytotoxicity assay (MTT). In kind it is cell-based. As to conditions: A549, MTT, 48 h incubation, read-out: IC50 A-549. As to the method:
(§2) The cytotoxic assays were evaluated in triplicate against three cancer cell lines, namely KB (epidermal carcinoma), A-549 (human lung adenocarcinoma), and HepG-2 (human hepatoma) (ATCC), with a modification of the previously published method. The cells were cultured in Dulbecco’s D-MEM medium (Gibco, Life Technologies Corporation, Grand Island, NY, USA), supplemented with 10% fetal calf serum (Sigma-Aldrich, St. Loius, MO, USA), L-glutamine (2 mM) (Sigma-Aldrich, St. Loius, MO, USA), penicillin G (100 UI/mL), and streptomycin (100 μg/mL) (Sigma-Aldrich, St. Loius, MO, USA). The compound solutions were prepared in DMSO, and the cytotoxic assays were conducted in 96-well microtiter plates against the cancer cells (3 × 10^5 cells/mL concentration). After 48 h incubation at 37 °C in an air/CO2 (95:5) atmosphere, with or without isolated compounds, MTT reagent was added to each well (0.5 mg/mL). The cell growth was assessed by measuring the colorimetric of formazan at 570 nm using a microplate reader. […] Ellipticine was used as a positive reference.

The next experiment deals with HepG-2 (human hepatoma). In words: Cytotoxicity assay (MTT). The class given is cell-based. As to conditions: HepG2, MTT, 48 h incubation, read-out: IC50 Hep-G2. As to the method: as §2
For a further experiment, the system named is KB (epidermal carcinoma). The experiment in a line: Cytotoxicity assay (MTT). In kind it is cell-based. As to conditions: MTT, 48 h incubation; read-out: IC50 KB. As to the method:
as §2

In a further experiment the target is T1, α-glucosidase (Saccharomyces cerevisiae, UniProt P53341).
T1 construct: purchased Sigma-Aldrich G0660
T1 sequence (P53341 whole entry): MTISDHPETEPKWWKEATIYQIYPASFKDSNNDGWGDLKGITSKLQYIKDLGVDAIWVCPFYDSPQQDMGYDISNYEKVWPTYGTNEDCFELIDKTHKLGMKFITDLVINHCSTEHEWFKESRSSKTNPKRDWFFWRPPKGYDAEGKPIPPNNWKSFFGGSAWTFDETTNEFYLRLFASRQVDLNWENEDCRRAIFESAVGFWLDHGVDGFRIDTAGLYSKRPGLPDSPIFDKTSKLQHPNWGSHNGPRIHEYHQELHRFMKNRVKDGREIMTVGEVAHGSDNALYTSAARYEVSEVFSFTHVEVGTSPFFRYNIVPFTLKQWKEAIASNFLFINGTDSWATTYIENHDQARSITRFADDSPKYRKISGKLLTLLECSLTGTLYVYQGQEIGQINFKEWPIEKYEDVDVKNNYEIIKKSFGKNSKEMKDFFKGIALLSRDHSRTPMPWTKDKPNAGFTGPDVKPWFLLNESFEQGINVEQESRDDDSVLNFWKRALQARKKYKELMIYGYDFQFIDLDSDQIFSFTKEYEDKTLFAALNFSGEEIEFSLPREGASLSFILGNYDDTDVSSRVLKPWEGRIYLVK
In words: biochemical. The protocol:
An assay for the α-glucosidase inhibitory activity was carried out by a modification of the published method. Briefly, solutions of α-glucosidase (Saccharomyces cerevisiae, G0660, Sigma-Aldrich, St. Louis, MO, USA) and p-nitrophenyl α-D-glucopyranoside (Sigma-Aldrich, St. Louis, MO, USA) were prepared in a phosphate buffer (100 mM, pH 6.8, Sigma-Aldrich, St. Louis, MO, USA). […] The compound solution (2 μL) and 40 µL of enzyme solution (0.5 U/mL) in 120 µL phosphate buffer were mixed. After 5 min of preincubation, 20 µL of 10 mM p-nitrophenyl α-D-glucopyranoside prepared in phosphate buffer was added, and the reaction mixture was incubated for 30 min at 37 °C. The reaction was quenched by the addition of 80 µL of 0.2 M Na2CO3. The absorbance of the released p-nitrophenol was measured at 410 nm using a Biotek reader. The % inhibition was calculated using the following equation:Inhibition (%) = [1 − (Asample/Acontrol)] ∗ 100
The IC50 values of the isolated compounds were calculated using the program Table Curve.

[2] abbreviates: Table S1, α-glucosidase, read-out: IC50 (Table S1) (converted).
The mark [3] stands for this setting: p-nitrophenyl α-D-glucopyranoside, pH 6.8, 37 °C, read-out: IC50 α-Glucosidase Inhibitory Activity.

Values after ≈ are worked out from the molar mass of the structure shown. Read-outs that look alike come from different tables or passages of the source.

Turning to `CC1(C)S[C@@H]2[C@H](NC(=O)[C@H](N)c3ccccc3)C(=O)N2[C@H]1C(=O)O` [A, Ampicillin, reference compound], the figures for the IC50 with Bacillus cereus (Gram (+) strain), with Lactobacillus fermentum (Gram (+) strain) and in the experiment with Staphylococcus aureus (Gram (+) strain) were 3.62 ± 0.15 µg/mL (≈ 10.4 µM), 1.03 ± 0.07 µg/mL (≈ 2.95 µM) and 0.02 ± 0.005 µg/mL (≈ 0.0572 µM), respectively.
Consider `CO/N=C(\C(=O)N[C@@H]1C(=O)N2C(C(=O)O)=C(COC(C)=O)CS[C@H]12)c1csc(N)n1` [C, Cefotaxim, reference compound], for which, in the experiment with Escherichia coli (Gram (−) strain), the “IC50 E. coli” value was 0.07 ± 0.02 µg/mL (≈ 0.154 µM). Further, the “IC50 P. aeruginosa” value with Pseudomonas aeruginosa (Gram (−) strain) stood at 4.34 ± 0.15 µg/mL (≈ 9.53 µM). In addition, the “IC50 S. enterica” value in the experiment on Salmonella enterica worked out at 0.43 ± 0.05 µg/mL (≈ 0.944 µM).
Regarding `C=C1CC[C@@H]2[C@H]([C@H]3[C@H]1CC[C@]3(C)O)C2(C)C` [Compound 1, spathulenol], the IC50 (usually the concentration needed to halve the response being measured) with Bacillus cereus was over 256 µg/mL; with Candida albicans, over 256 µg/mL; in the experiment on Escherichia coli it was over 256 µg/mL; in the experiment on Lactobacillus fermentum (Gram (+) strain), 206 ± 5.23 µg/mL (≈ 934 µM); with Pseudomonas aeruginosa it was over 256 µg/mL; in the experiment with Salmonella enterica it was over 256 µg/mL. Further, the IC50 in the experiment with Staphylococcus aureus was over 256 µg/mL; in experiment [1] it was over 128 µg/mL; in the experiment with HepG-2 (human hepatoma) it was over 128 µg/mL; in the experiment with KB (epidermal carcinoma), over 128 µg/mL; on α-glucosidase (setting [2]), over 1.16 mM; on α-glucosidase (setting [3]), over 1.16 mM.
With `CC1(C)[C@H]2[C@H]3[C@@H](CC[C@]3(C)O)[C@](C)(O)CC[C@H]21` [Compound 2, 1αH,5βH-aromandendrane-4β,10α-diol], the IC50 in the experiment on Bacillus cereus, in the experiment with Candida albicans, with Escherichia coli, in the experiment with Lactobacillus fermentum, with Pseudomonas aeruginosa and with Salmonella enterica was over 256 µg/mL in each case. Also, the IC50 with Staphylococcus aureus is over 256 µg/mL; in [1], over 128 µg/mL; in the experiment on HepG-2 (human hepatoma), over 128 µg/mL; with KB (epidermal carcinoma), over 128 µg/mL; at α-glucosidase (setting [2]) it was over 1.07 mM; at α-glucosidase (setting [3]) it was over 1.07 mM.
`C=C1CC[C@@H](O)[C@]2(C)CC[C@@H](C(C)C)[C@H](O)[C@@H]12` [Compound 3, 1β,6α-dihydroxy-4(15)-eudesmene]: the IC50 with Bacillus cereus, in the experiment on Candida albicans, with Escherichia coli, with Lactobacillus fermentum, with Pseudomonas aeruginosa and in the experiment with Salmonella enterica was over 256 µg/mL each time. In addition, the IC50 in the experiment on Staphylococcus aureus was over 256 µg/mL; in experiment [1], over 128 µg/mL; in the experiment on HepG-2 (human hepatoma), over 128 µg/mL; with KB (epidermal carcinoma), over 128 µg/mL; at α-glucosidase (setting [2]) it was over 1.07 mM; at α-glucosidase (setting [3]), over 1.07 mM.
As to `CC1(C)[C@H]2[C@H]3[C@H](CC[C@@]3(C)O)[C@@](C)(O)CC[C@H]21` [Compound 4, 1βH,5βH-aromandendrane-4α,10β-diol], the IC50 with Bacillus cereus, with Candida albicans, with Escherichia coli, in the experiment with Lactobacillus fermentum, in the experiment with Pseudomonas aeruginosa and in the experiment on Salmonella enterica was over 256 µg/mL in each case. In addition, the 50% inhibitory concentration (IC50) in the experiment on Staphylococcus aureus was over 256 µg/mL; in experiment [1] it was over 128 µg/mL; in the experiment with HepG-2 (human hepatoma) it was over 128 µg/mL; in the experiment on KB (epidermal carcinoma), 89.1 ± 9.67 µg/mL (≈ 374 µM); on α-glucosidase (setting [2]) it was over 1.07 mM; on α-glucosidase (setting [3]), over 1.07 mM.
In the case of `Cc1c2ccncc2c(C)c2c1[nH]c1ccccc12` [Ellipticine, reference compound], the IC50 in experiment [1] is 0.34 ± 0.02 µg/mL (≈ 1.38 µM); in the experiment on HepG-2 (human hepatoma), 0.5 ± 0.03 µg/mL (≈ 2.03 µM); in the experiment with KB (epidermal carcinoma) it was 0.48 ± 0.03 µg/mL (≈ 1.95 µM).
For the molecule `C[C@@H]1[C@H](O)[C@@H](C)/C=C/C=C/CC/C=C/C=C/C=C/C=C/C(O[C@H]2O[C@H](C)[C@@H](O)[C@H](N)[C@@H]2O)CC2O[C@](O)(CC(O)C(O)CCC(O)CC(O)CC(O)CC(=O)O[C@H]1C)CC(O)C2C(=O)O` (stereo partly shown) [N, Nystatin, reference compound], in the experiment on Candida albicans (Fungus), the “IC50 C. albicans” value was found to be 1.32 ± 0.05 µg/mL (≈ 1.43 µM).

Values taken from paper PMC10455239, “Antimicrobial, Cytotoxic, and α-Glucosidase Inhibitory Activities of Ethanol Extract and Chemical Constituents Isolated from Homotrigona apicalis Propolis—In Vitro and Molecular Docking Studies” (Life, 2023).
